pIC50: −log10 of the molar value.
Tests used:
Type in all cases: biochemical
rhVAP-1 = rhVAP-1 (Homo sapiens (Human), UniProt Q16853); test: VAP-1 fluorometric assay (Amplex Red/HRP, benzylamine substrate); conditions: class symbols, ranges defined in μM
In short: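 Recombinant human VAP-1 oxidizes 50 μM benzylamine in 10 mM NaHCO3 pH 7.4 containing 0.05 mM Amplex Red and 0.5 U HRP, with inhibitor in 0.5% DMSO. After 30 min at 37 °C in the dark, resorufin fluorescence is read […], calibrated against an H2O2 standard curve.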

rhMAO-A = rhMAO-A (Homo sapiens (Human), UniProt P21397); test: MAO-Glo assay, MAO-A inhibition; conditions: for pIC50: bound printed in cell; for IC50: class symbols, ranges defined in μM
In short: (§1)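 Recombinant human MAO-A or MAO-B with luciferin-derivative substrate (10 μM for MAO-A, […]) in 100 mM HEPES pH 7.5, 5% glycerol, 1 h at room temperature; luminescence read 20 min after detection reagent.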

rhMAO-B = rhMAO-B (Homo sapiens (Human), UniProt P27338); test: MAO-Glo assay, MAO-B inhibition; conditions: for IC50: class symbols, ranges defined in μM; for pIC50: bound printed in cell
In short: as §1

Sequence of rhMAO-B (P27338 whole entry): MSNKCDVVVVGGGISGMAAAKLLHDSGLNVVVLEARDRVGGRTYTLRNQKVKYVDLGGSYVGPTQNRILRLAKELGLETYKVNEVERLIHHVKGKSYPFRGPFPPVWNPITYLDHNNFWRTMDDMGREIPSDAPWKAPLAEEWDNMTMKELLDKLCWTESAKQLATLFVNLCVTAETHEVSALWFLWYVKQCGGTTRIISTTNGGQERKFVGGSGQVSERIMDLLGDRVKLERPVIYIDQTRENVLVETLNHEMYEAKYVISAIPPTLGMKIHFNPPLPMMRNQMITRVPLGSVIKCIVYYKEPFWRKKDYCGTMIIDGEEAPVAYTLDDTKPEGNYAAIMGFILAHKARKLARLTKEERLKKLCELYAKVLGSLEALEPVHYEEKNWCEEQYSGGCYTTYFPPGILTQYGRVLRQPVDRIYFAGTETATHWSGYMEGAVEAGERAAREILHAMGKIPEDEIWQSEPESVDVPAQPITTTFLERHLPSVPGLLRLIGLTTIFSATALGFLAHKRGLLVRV
Sequence of rhVAP-1 (Q16853 whole entry): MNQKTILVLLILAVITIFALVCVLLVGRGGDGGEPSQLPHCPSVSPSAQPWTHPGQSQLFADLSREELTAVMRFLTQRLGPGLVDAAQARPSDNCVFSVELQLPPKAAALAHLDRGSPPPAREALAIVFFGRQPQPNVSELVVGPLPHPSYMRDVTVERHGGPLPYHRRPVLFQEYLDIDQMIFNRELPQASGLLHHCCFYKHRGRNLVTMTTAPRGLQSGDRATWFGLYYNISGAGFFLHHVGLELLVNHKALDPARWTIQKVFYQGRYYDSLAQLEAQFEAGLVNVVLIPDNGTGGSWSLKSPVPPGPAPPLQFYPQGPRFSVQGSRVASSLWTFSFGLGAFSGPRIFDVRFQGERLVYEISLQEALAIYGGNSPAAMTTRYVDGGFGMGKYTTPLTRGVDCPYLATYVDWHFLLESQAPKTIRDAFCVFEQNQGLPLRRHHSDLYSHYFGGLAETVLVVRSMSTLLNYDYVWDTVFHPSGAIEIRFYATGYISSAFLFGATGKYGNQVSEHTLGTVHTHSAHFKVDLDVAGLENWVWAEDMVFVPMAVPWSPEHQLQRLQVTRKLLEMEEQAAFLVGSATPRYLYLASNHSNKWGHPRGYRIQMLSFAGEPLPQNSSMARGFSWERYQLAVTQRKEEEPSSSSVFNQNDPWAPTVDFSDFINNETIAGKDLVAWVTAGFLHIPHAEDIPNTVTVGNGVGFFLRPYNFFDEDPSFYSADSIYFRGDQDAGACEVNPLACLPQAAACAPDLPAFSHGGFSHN
Sequence of rhMAO-A (P21397 whole entry): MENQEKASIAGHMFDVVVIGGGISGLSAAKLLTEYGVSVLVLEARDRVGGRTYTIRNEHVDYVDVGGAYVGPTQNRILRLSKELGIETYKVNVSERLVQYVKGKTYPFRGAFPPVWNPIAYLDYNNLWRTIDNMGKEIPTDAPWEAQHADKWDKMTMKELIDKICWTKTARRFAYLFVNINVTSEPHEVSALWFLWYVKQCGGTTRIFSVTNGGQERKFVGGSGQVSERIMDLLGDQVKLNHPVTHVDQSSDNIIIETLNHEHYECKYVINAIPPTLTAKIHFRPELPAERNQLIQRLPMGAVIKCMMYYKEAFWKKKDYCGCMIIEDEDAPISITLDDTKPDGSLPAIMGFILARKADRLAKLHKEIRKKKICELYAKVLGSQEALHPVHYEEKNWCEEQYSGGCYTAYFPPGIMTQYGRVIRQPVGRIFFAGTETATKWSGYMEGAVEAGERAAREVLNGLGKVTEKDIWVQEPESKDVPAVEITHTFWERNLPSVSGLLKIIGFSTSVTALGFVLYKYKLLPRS

| IC50 (rhVAP-1) | pIC50 (rhMAO-A) | IC50 (rhMAO-B) | IC50 (rhMAO-A) | pIC50 (rhMAO-B) | SMILES |
| --- | --- | --- | --- | --- | --- |
| < 0.1 µM | < 4.30 | 1 to 10 µM |  |  | Cc1cc(CNc2nc3ccc(OC/C(=C\F)CN)cc3o2)cc(C)n1 [Example 60, (Z)-6-((2-(aminomethyl)-3-fluoroallyl)oxy)-N-((2,6-dimethylpyridin-4-yl)methyl)benzo[d]oxazol-2-amine bis(4-methylbenzenesulfonate)] |
| < 0.1 µM | < 4.30 | 1 to 10 µM |  |  | CCCCn1cnc2cc(OC/C(=C/F)CN)ccc21 [Example 89, (E)-2-(((1-butyl-1H-benzo[d]imidazol-5-yl)oxy)methyl)-3-fluoroprop-2-en-1-amine 4-methylbenzenesulfonate] |
| < 0.1 µM |  | 1 to 10 µM | 1 to 10 µM |  | NC/C(=C\F)COc1ccc2nc(N3CCC(O)C3)oc2c1 (stereo not drawn) [Example 85, (E)-1-(6-((2-(aminomethyl)-3-fluoroallyl)oxy)benzo[d]oxazol-2-yl)pyrrolidin-3-ol 4-methylbenzenesulfonate] |
| < 0.1 µM |  | 1 to 10 µM | 1 to 10 µM |  | NC/C(=C\F)COc1ccc2nc(N3CC4(COC4)C3)oc2c1 [Example 67, (E)-2-(((2-(2-oxa-6-azaspiro[3.3]heptan-6-yl)benzo[d]oxazol-6-yl)oxy)methyl)-3-fluoroprop-2-en-1-amine 4-methylbenzenesulfonate] |
| < 0.1 µM |  | 0.1 to 1 µM | 1 to 10 µM |  | CCCCc1nc2ccc(CC(=CF)CN)cc2o1 [Example 18, 2-((2-butylbenzo[d]oxazol-6-yl)methyl)-3-fluoroprop-2-en-1-amine] |
| < 0.1 µM |  | 1 to 10 µM | 10 to 30 µM |  | NC/C(=C/F)COc1ccc2nc(NCc3ccnc(C(F)(F)F)c3)oc2c1 [Example 62, (Z)-6-((2-(aminomethyl)-3-fluoroallyl)oxy)-N-((2-(trifluoromethyl)pyridin-4-yl)methyl)benzo[d]oxazol-2-amine 4-methylbenzenesulfonate] |
| < 0.1 µM |  | 0.1 to 1 µM | 10 to 30 µM |  | NC/C(=C\F)COc1ccc2nc(NCCc3ccccc3)oc2c1 [Example 45, (E)-6-((2-(aminomethyl)-3-fluoroallyl)oxy)-N-phenethylbenzo[d]oxazol-2-amine 4-methylbenzenesulfonate] |
| < 0.1 µM |  | < 0.1 µM | 1 to 10 µM |  | CCCCc1nc2cc(OC/C(=C/F)CN)ccc2o1 [Example 8, (E)-2-(((2-butylbenzo[d]oxazol-5-yl)oxy)methyl)-3-fluoroprop-2-en-1-amine 4-methylbenzenesulfonate] |
| < 0.1 µM | < 4.30 | 1 to 10 µM |  |  | NC/C(=C/F)COc1ccc2nc(NC3CCC(O)CC3)oc2c1 (stereo not drawn) [Example 78, (Z)-4-((6-((2-(aminomethyl)-3-fluoroallyl)oxy)benzo[d]oxazol-2-yl)amino)cyclohexan-1-ol 4-methylbenzenesulfonate] |
| < 0.1 µM | < 4.30 |  |  | < 4.30 | CNC(=O)CN(C)c1nc2ccc(OC/C(=C\F)CN)cc2o1 [Example 72, (Z)-2-((6-((2-(aminomethyl)-3-fluoroallyl)oxy)benzo[d]oxazol-2-yl)(methyl)amino)-N-methylacetamide 4-methylbenzenesulfonate] |
| < 0.1 µM |  | 0.1 to 1 µM | 10 to 30 µM |  | CCCCc1nc2ccc(NC/C(=C\F)CN)cc2o1 [Example 44, (Z)—N1-(2-butylbenzo[d]oxazol-6-yl)-2-(fluoromethylene)propane-1,3-diamine 4-methylbenzenesulfonate] |
| < 0.1 µM |  | 1 to 10 µM | 1 to 10 µM |  | NC/C(=C\F)COc1ccc2nc(NCCCO)sc2c1 [Example 88, (E)-3-((6-((2-(aminomethyl)-3-fluoroallyl)oxy)benzo[d]thiazol-2-yl)amino)propan-1-ol 4-methylbenzenesulfonate] |
| < 0.1 µM |  | 1 to 10 µM | 1 to 10 µM |  | CCCNc1nc2ccc(OC/C(=C\F)CN)cc2s1 [Example 12, (Z)-6-((2-(aminomethyl)-3-fluoroallyl)oxy)-N-propylbenzo[d]thiazol-2-amine 4-methylbenzenesulfonate] |
| < 0.1 µM |  | 0.1 to 1 µM | 1 to 10 µM |  | CCCCc1nc2ccc(OC/C(=C\F)CN)cc2o1 [Example 19, (Z)-2-(((2-butylbenzo[d]oxazol-6-yl)oxy)methyl)-3-fluoroprop-2-en-1-amine 4-methylbenzenesulfonate] |
| < 0.1 µM |  | 0.1 to 1 µM | 10 to 30 µM |  | CCCCc1nc2ccc(NC/C(=C/F)CN)cc2o1 [Example 17, (E)-N1-(2-butylbenzo[d]oxazol-6-yl)-2-(fluoromethylene)propane-1,3-diamine] |
| < 0.1 µM |  | 1 to 10 µM | 1 to 10 µM |  | COc1cc(CNc2nc3ccc(OC/C(=C\F)CN)cc3o2)ccn1 [Example 74, (Z)-6-((2-(aminomethyl)-3-fluoroallyl)oxy)-N-((2-methoxypyridin-4-yl)methyl)benzo[d]oxazol-2-amine 4-methylbenzenesulfonate] |
| < 0.1 µM | < 4.30 | 1 to 10 µM |  |  | COCCNc1nc2ccc(OC/C(=C\F)CN)cc2o1 [Example 61, (Z)-6-((2-(aminomethyl)-3-fluoroallyl)oxy)-N-(2-methoxyethyl)benzo[d]oxazol-2-amine 4-methylbenzenesulfonate] |
| < 0.1 µM |  | 0.1 to 1 µM | 10 to 30 µM |  | CC1CN(c2nc3ccc(OC/C(=C/F)CN)cc3o2)C1 [Example 33, (E)-3-fluoro-2-(((2-(3-methylazetidin-1-yl)benzo[d]oxazol-6-yl)oxy)methyl)prop-2-en-1-amine 4-methylbenzenesulfonate] |
| < 0.1 µM |  | 10 to 30 µM | 1 to 10 µM |  | CCCCc1nc2ccc(C(=CF)CN)cc2o1 [Example 27, 2-(2-butylbenzo[d]oxazol-6-yl)-3-fluoroprop-2-en-1-amine 4-methylbenzenesulfonate] |
| < 0.1 µM |  |  | 1 to 10 µM | < 4.30 | NC/C(=C/F)COc1ccc2nc(N3CCC(O)CC3)oc2c1 [Example 77, (Z)-1-(6-((2-(aminomethyl)-3-fluoro-allyl)oxy)benzo[d]oxazol-2-yl)piperidin-4-ol 4-methylbenzenesulfonate] |
| < 0.1 µM |  | < 0.1 µM | 10 to 30 µM |  | CCCCc1nc2ccc(OC/C(=C/F)CN)c(F)c2o1 [Example 2, (E)-2-(((2-butyl-7-fluorobenzo[d]oxazol-6-yl)oxy)methyl)-3-fluoroprop-2-en-1-amine] |
| < 0.1 µM |  | 0.1 to 1 µM | 10 to 30 µM |  | CN(Cc1ccccc1)c1nc2ccc(OC/C(=C/F)CN)cc2o1 [Example 49, (E)-6-((2-(aminomethyl)-3-fluoroallyl)oxy)-N-benzyl-N-methylbenzo[d]oxazol-2-amine 4-methylbenzenesulfonate] |
| < 0.1 µM |  | 1 to 10 µM | 10 to 30 µM |  | CCCCn1oc2cc(OC/C(=C/F)CN)ccc2c1=O [Example 9, (E)-6-((2-(aminomethyl)-3-fluoroallyl)oxy)-2-butylbenzo[d]isoxazol-3(2H)-one 4-methylbenzenesulfonate] |
| < 0.1 µM |  | 1 to 10 µM | 10 to 30 µM |  | CCCCc1nc2ccc(N(C)C/C(=C/F)CN)cc2o1 [Example 20, (E)-N1-(2-butylbenzo[d]oxazol-6-yl)-2-(fluoromethylene)-N1-methylpropane-1,3-diamine] |

From US20230295140A1, “INHIBITORS OF VAP-1” (Acucela Inc., priority 2021, published 2023)
